Laboratory results taken from article PMC6240685, “Strong Inhibitory Effect, Low Cytotoxicity and High Plasma Stability of Steroidal Inhibitors of N-Methyl-D-Aspartate Receptors With C-3 Amide Structural Motif” (Frontiers in Pharmacology, 2018).
Read-outs that look alike come from different tables or passages of the source.

Assays:
[1] = target: T1, GluN1/GluN2B receptors (Rattus norvegicus, UniProt P35439+Q00960); assay: Patch-clamp inhibition of glutamate responses of GluN1/GluN2B receptors in transfected HEK293 cells; assay type: cell-based
T1 construct: expressed in transfected cells; host or cells: HEK293

[2] = test system: HepG2 cells; assay: Mitotoxicity, XTT viability in glucose vs galactose medium; conditions: for Glu/Gal index (fold change): 24 h, HepG2, index higher than 3 indicates potential mitochondrial toxicity; for IC50: Homo sapiens, HepG2, 24 h
Description: (§1) (A) Hepatotoxicity provoked by compound 4 was assessed after 72 h incubation of HepG2 cells in low glucose medium (5 mM) in the presence of compound 4 (0.25–100 μM). (B) Mitochondrial toxicity was determined after 24 h incubation of HepG2 cells in either high glucose medium (25 mM) or galactose medium (10 mM) in the presence of compound 4 (2.5–150 μM). Cell viabilities were recorded in triplicates in three independent experiments and expressed as percentage of vehicle control ± SD and IC50 values were determined by GraphPad Prism software using following equation: Y = Bottom + (Top–Bottom)/(1 + 10ˆ((LogIC50-X)^∗HillSlope)), where IC50 is the concentration of compound 4 that inhibits cell viability half way between Bottom and Top plateaus, X is compound 4 concentration and HillSlope describes the steepness of the family of curves. […] (C) Concentration-dependent effect on ROS level. HepG2 cells were treated with compound 4 (0.25–100 μM) for 72 h, and then the intracellular level of total ROS in relative fluorescence units (RFU) was detected. The data are presented as the mean ± SD for at least three independent experiments and each experiment was carried out in triplicate. Final concentration of DMSO in samples was 1%. […] Single asterisks (^∗) indicate a significant difference (P < 0.05) compared to 1% DMSO control (one-way ANOVA with Dunnett’s post-test).
(§2) HepG2 cells (ATCC®, United Kingdom) were grown in complete Minimal Essential Medium (EMEM) (5.5 mM glucose) medium, supplemented with 10% (v/v) fetal calf serum, 200 μg/mL of streptomycin, 200 U/mL of penicillin G and 4 mM glutamine. They were cultured under a humidified atmosphere containing 5% CO2 at 37°C.
(§3) The cytotoxicity of the tested compounds was assessed with use of XTT cell proliferation kit II (Roche Diagnostics GmbH, Mannheim, Germany) according to the manufacturer’s instructions. Briefly HepG2 cells were seeded in a 96-well plate at a density of 22,000 cells per well. After 24 h, the tested neurosteroids in a concentration range from 0.5 to 200 μM were added to the culture media and incubated for 72 h before the XTT dye was added. Mitochondrial toxicity was assessed in HepG2 cells using glucose and galactose conditioned media and XTT assay as a read out for cell viability. In brief, cells were seeded onto 96 well, clear bottom tissue culture plates at a density of 22,000 cells/well and left overnight to attach. Six hours prior to the neurosteroids treatment the media was replaced with 100 μL DMEM media containing either glucose (25 mM glucose; 1 mM pyruvate; 2 mM glutamine, 10% FBS) or galactose (10 mM galactose, 1 mM pyruvate, 6 mM glutamine, 10% FBS). After that, the tested neurosteroids in a concentration range from 0.5 to 200 μM were added in the fresh appropriate assay medium (glucose or galactose) and incubated for 24 h before the XTT dye was added. The XTT absorbance was recorded at 495 nm after 1 h incubation with the dye. Compounds were dissolved in DMSO to produce the stock solutions at the concentration of 10 mM, with exception of PAG, 1, 6 (5 mM), and 11 (2.5 mM). Results were expressed as percentages of change in viability compared to appropriate DMSO control. IC50 values were determined by GraphPad Prism version 5.00 for Windows (GraphPad Software, La Jolla, CA, United States). All experiments were done in triplicates in three independent experiments to check the reproducibility.

[3] = test system: HepG2 cells; assay: Hepatotoxicity, XTT viability after 72 h; assay type: cell-based; conditions: Homo sapiens; 72 h, HepG2, 5.5 mM glucose; read-out: Hepatotoxicity IC50, 5.5 mM glucose
Description: Then, the cell viability (XTT assay) and reactive oxygen species (ROS) induction were evaluated.
as §1, §2, §3

[4] = test system: HepG2 cells; assay: ROS induction (CM-H2DCFDA); assay type: cell-based; conditions: Homo sapiens, HepG2, 72 h; read-out: ROS induction EC50
Description: as §1
The effect of neurosteroids on oxidative stress was determined using general oxidative stress indicator CM-H2DCFDA (Thermo Fisher Scientific, Waltham, MA, United States) according to the manufacturer’s instructions. Briefly HepG2 cells were seeded in a 96-well plate at a density of 13,500 cells per well. After 24 h, the tested neurosteroids were added to the culture media and incubated for 72 h. Subsequently, cells were washed with HBSS, treated with 100 μL of 1 μM CM-H2DCF-DA solution in HBSS and incubated for 1 h in the dark at 37°C. Finally, cells were washed three times with HBSS and the fluorescence was measured using 495 excitation and 527 emission in fluorescence microplate reader (Cytation 3, Winooski, VT, United States). IC50 index values were determined by GraphPad Prism version 5.00 for Windows (GraphPad Software, La Jolla, CA, United States).

[5] = Plasma stability, rat plasma; assay type: in vitro ADME
[6] = Plasma stability, human plasma; assay type: in vitro ADME
Description: Then, 37.8 μL of stock solution was added to 1400 μL of human plasma, maintained at 37°C. Aliquots (50 μL) withdrawn at 0, 1, 4, 8, and 24 h were analyzed by HPLC. […] The supernatant was transferred to an autosampler vial and 1 μL was injected onto LC-MS system. The samples were analyzed with an Agilent 1260 HPLC (Agilent Technologies) coupled to ESI-TOF Agilent 6530 (Agilent Technologies) with Agilent Jet Stream Technology. Samples were separated on a Waters ACQUITY UPLC CSH Phenyl-Hexyl (100 × 2.1, 130 Å, 1.7 μm) at a flow rate 0.3 ml/min. […] The mass spectrometry instrument was operated in a negative ion mode with a voltage of +3.00 kV applied to the capillary. The temperature, the flow rate of the nitrogen drying gas, the pressure of the nitrogen nebulizing gas, and the flow rate of the sheath gas were set at 325°C, 10 l/min, 40 psi, 390°C, and 11 l/min, respectively. Results are represented as a percentage of a compound remaining in spiked human plasma.

[7] = as repeated in Table 2, read-out: IC50
[8] = current responses to glutamate, HEK293, IC50 from single steroid dose, Hill coefficient fixed at 1.2, read-out: IC50 ± SD
[9] = read-out: Mitotoxicity IC50, 10 mM galactose
[10] = read-out: Mitotoxicity IC50, 25 mM glucose

T1 sequence (Q00960 27-1482, other chains not shown): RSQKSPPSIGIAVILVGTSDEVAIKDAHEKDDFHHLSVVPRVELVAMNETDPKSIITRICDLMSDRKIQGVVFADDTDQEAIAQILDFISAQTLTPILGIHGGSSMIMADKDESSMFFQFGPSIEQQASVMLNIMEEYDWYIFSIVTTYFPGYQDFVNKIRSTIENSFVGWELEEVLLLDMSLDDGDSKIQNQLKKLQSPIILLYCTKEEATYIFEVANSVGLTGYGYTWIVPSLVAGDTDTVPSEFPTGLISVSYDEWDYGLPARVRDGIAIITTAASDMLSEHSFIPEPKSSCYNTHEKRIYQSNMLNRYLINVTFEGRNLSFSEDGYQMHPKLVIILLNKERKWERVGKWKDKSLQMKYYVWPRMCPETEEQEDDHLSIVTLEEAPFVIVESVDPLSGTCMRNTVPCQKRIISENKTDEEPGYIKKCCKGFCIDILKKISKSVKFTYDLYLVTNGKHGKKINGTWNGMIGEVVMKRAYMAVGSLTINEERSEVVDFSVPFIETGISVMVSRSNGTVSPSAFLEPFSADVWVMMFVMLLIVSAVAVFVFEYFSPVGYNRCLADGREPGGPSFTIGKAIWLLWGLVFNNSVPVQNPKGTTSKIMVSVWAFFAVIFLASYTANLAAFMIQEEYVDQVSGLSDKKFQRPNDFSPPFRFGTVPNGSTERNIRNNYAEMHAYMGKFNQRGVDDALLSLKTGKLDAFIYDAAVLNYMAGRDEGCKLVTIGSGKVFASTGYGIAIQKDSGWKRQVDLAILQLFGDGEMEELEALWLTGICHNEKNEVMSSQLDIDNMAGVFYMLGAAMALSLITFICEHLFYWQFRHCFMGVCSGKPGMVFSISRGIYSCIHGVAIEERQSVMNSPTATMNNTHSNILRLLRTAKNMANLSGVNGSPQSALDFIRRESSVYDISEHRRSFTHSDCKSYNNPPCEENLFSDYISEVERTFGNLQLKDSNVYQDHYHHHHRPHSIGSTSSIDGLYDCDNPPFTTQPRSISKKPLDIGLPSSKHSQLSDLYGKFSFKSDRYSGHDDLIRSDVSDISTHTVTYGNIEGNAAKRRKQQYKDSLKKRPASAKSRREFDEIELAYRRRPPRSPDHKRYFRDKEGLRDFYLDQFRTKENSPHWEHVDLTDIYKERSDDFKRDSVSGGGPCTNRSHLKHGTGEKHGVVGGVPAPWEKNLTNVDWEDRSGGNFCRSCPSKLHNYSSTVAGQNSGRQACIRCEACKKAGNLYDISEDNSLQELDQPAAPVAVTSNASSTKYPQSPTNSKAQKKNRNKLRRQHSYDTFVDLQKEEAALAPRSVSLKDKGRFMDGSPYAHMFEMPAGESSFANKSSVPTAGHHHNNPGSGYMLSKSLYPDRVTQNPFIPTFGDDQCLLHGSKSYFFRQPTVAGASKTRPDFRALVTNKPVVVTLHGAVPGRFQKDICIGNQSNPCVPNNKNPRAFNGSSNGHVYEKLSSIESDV

SMILES	ΔGexp [1] [kcal/mol]	IC50 [1, 7] [µM]	IC50 ± SD ([1]; current responses to glutamate, HEK293, IC50 from single steroid dose, Hill coefficient fixed at 1.2)	IC50 [1, 8] [µM]	Glu/Gal index (fold change) [2]	IC50 [2, 9] [µM]	IC50 [2, 10] [µM]	IC50 [3] [µM]	EC50 [4] [µM]	remaining at 8 h, 42.1 μg/mL ([5]; rat plasma, 8 h, 37°C, read-out: Plasma stability (% remaining after 8 h), Rat) [%]	remaining at 8 h, 42.1 μg/mL ([6]; human plasma, 8 h, 37°C, read-out: Plasma stability (% remaining after 8 h), Human) [%]	remaining at 8 h, 42.1 μg/mL ([5]; rat, plasma) [%]	remaining at 8 h, 42.1 μg/mL ([6]; human, plasma) [%]
C[C@@]12CCC[C@H]1[C@@H]1CC[C@@H]3C[C@H](NC(=O)C(=O)O)CC[C@]3(C)[C@H]1CC2 [Compound 1, 2-(((3R,5R,8S,9S,10S,13S,14S)-10,13-dimethylhexadecahydro-1H-cyclopenta[a]phenanthren-3-yl)amino)-2-oxoacetic acid]	-6.39	21.7	least inhibitory activity	21.7 ± 4.8	1.97	72 ± 9	142 ± 12	42 ± 7	52 ± 6	100	100		
C[C@@]12CCC[C@H]1[C@@H]1CC[C@@H]3C[C@H](NC(=O)CC(=O)O)CC[C@]3(C)[C@H]1CC2 [Compound 2, 3-(((3R,5R,8S,9S,10S,13S,14S)-10,13-dimethylhexadecahydro-1H-cyclopenta[a]phenanthren-3-yl)amino)-3-oxopropanoic acid]	-6.59				1.32	174 ± 12	> 200	148 ± 14	165 ± 18			100	98
C[C@@]12CCC[C@H]1[C@@H]1CC[C@@H]3C[C@H](NC(=O)CCC(=O)O)CC[C@]3(C)[C@H]1CC2 [Compound 3, 4-(((3R,5R,8S,9S,10S,13S,14S)-10,13-dimethylhexadecahydro-1H-cyclopenta[a]phenanthren-3-yl)amino)-4-oxobutanoic acid]	-6.78	11.2		11.2 ± 7.2		> 200	> 200	> 200	> 200			100	98
C[C@@]12CCC[C@H]1[C@@H]1CC[C@@H]3C[C@H](NC(=O)CCCC(=O)O)CC[C@]3(C)[C@H]1CC2 [Compound 4, 5-(((3R,5R,8S,9S,10S,13S,14S)-10,13-dimethylhexadecahydro-1H-cyclopenta[a]phenanthren-3-yl)amino)-5-oxopentanoic acid]	-6.92	8.9		8.9 ± 1		11 ± 3	48 ± 6	4 ± 0.2	7 ± 2			99	96
CC(C)(C)OC(=O)N[C@@H](CC(=O)O)C(=O)N[C@@H]1CC[C@@]2(C)[C@H](CC[C@H]3[C@@H]4CCC[C@@]4(C)CC[C@@H]32)C1 [Compound 5, (S)-3-((tert-butoxycarbonyl)amino)-4-(((3R,5R,8S,9S,10S,13S,14S)-10,13-dimethylhexadecahydro-1H-cyclopenta[a]phenanthren-3-yl)amino)-4-oxobutanoic acid]	-7.22	5.4		5.4 ± 2.3		> 200	> 200	> 200	> 200			93	100
CC(C)(C)OC(=O)N[C@@H](CCC(=O)O)C(=O)N[C@@H]1CC[C@@]2(C)[C@H](CC[C@@H]3[C@@H]4CCC[C@@]4(C)CC[C@@H]32)C1 [Compound 7, (S)-4-((tert-butoxycarbonyl)amino)-5-(((3R,5R,8R,9S,10S,13S,14S)-10,13-dimethylhexadecahydro-1H-cyclopenta[a]phenanthren-3-yl)amino)-5-oxopentanoic acid]	-7.22	5.4		5.4 ± 2.4		> 200	> 200	> 200	> 200			94	97
C[C@@]12CCC[C@H]1[C@@H]1CC[C@@H]3C[C@H](NC(=O)[C@@H](N)CCC(=O)O)CC[C@]3(C)[C@H]1CC2 [Compound 8, (S)-4-amino-5-(((3R,5R,8S,9S,10S,13S,14S)-10,13-dimethylhexadecahydro-1H-cyclopenta[a]phenanthren-3-yl)amino)-5-oxopentanoic acid]	-8.02	1.4		1.4 ± 0.2	1.04	94 ± 14	98 ± 11	65 ± 5	71 ± 9			95	98
CS(=O)(=O)Nc1ccc([N+](=O)[O-])cc1Oc1ccccc1 [Nimesulide, nimesulide, reference compound]					3.88	18 ± 4	72 ± 8	2.2 ± 0.3	3.5 ± 0.5				
